The values that follow come from patent publication US5336496A, “Inhibitor for delta 5-desaturase” (Suntory Limited, priority 1989, dated 1994).

SMILES strings stand for the structures. Read-outs that look alike come from different tables or passages of the source.

For orientation: inhibition means the percentage by which the read-out fell short of the control.

In assay [1] the target is T1, Δ^6 -desaturase (Rattus norvegicus, UniProt Q9Z122).
T1 construct: The pellet was suspended in the homogenization solution to obtain a microsome solution; from tissue; host or cells: liver microsomes of a male Wistar rat
T1 sequence (Q9Z122 whole entry, stated change not applied): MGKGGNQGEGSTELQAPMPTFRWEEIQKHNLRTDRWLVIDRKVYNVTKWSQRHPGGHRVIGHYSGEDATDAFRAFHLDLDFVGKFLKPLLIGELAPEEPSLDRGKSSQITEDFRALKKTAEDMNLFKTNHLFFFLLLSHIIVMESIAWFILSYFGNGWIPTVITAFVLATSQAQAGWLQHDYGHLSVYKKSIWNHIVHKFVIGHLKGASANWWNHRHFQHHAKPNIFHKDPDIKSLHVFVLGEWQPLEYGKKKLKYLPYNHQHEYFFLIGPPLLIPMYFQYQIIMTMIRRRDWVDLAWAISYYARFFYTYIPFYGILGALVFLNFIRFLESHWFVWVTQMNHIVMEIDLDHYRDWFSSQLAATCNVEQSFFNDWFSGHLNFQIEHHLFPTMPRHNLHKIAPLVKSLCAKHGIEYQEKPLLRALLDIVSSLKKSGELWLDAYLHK
Briefly: Inhibition of Δ6-desaturase in rat liver microsome ([1-14C]-linoleic acid substrate). It is filed as biochemical, rat (Wister male). The conditions noted are these: read-out: Inhibition on Δ^6 - (%).

The target in assay [2] is T2, Δ^5 -desaturase (Rattus norvegicus, UniProt Q920R3).
T2 construct: from tissue; host or cells: liver microsomes of a male Wistar rat
T2 sequence (Q920R3 whole entry, stated change not applied): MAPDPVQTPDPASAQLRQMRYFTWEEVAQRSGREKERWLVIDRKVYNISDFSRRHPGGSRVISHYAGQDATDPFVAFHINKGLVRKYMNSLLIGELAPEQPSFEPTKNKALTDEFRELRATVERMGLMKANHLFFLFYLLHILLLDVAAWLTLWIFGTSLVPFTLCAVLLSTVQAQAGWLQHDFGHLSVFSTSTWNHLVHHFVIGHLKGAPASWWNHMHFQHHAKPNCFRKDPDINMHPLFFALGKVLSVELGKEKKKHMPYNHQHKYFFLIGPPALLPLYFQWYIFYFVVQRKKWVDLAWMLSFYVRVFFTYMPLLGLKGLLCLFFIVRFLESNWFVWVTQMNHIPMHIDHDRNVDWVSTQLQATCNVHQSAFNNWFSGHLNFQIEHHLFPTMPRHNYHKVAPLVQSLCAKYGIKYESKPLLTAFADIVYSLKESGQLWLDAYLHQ
Briefly: Inhibition of Δ5-desaturase in rat liver microsome (conversion of [2-14C]-dihomo-γ-linolenic acid to arachidonic acid). The conditions noted are these: for inhibition at 30 µg/mL: read-out: Inhibition on Δ^5 -desaturase (%); for specific inhibition of Δ^5 -desaturase / inhibition of Δ^5 -desaturation reaction from dihomo-γ-linolenic acid to arachidonic acid: in words; for specific inhibition of Δ^5 -desaturase: figure legends, compared with Δ^6 -desaturase (and Δ^9 -desaturase for sesamin); for inhibition of Δ^5 -desaturation reaction from dihomo-γ-linolenic acid to arachidonic acid: 0.001 to 0.5 mg/ml, FIGS. 1, 2 and 3, rat liver microsome. It is filed as biochemical, rat (Wister male). As to the method: As a homogenization solution, a 50 mM phosphate buffer (pH 7.4) containing 0.15M KCl, 5 mM MgCl2.6H2 O, 1 mM EDTA, 0.25M saccharose and 1.5 mM glutathione was used. The liver of a Wister male rat was perfused with physiological saline and removed, and to the removed liver was added 4-fold by weight of the homogenization solution, and the whole was homogenized. The homogenate was centrifuged at 10,000×g for 20 minutes to obtain a supernatant, which was centrifuged at 100,000×g for one hour to obtain a pellet. The pellet was suspended in the homogenization solution to obtain a microsome solution containing 12.24 mg/ml protein. The above-mentioned procedures were carried out at 4° C.
To assay the Δ^5 -desaturase activity 100 μl of the rat liver microsome solution was added to 1 ml of 0.1M phosphate buffer (PH7.4) containing 0.25M saccharose, 0.15M KCl, 1.5 mM glutathione, 45 mM NaF, 0.5 mM nicotinamide, 5 mM MgCl2.6H20 O, 7.5 mM ATP, 0.4 mM CoA.Na2, 1.5 mM NADH, and 100 μM dihomo-γ-linolenic acid containing 0.1 μCi (1.7 nmoles) [2-^14 C]-dihomo-γ-linolenic acid per 1 ml, the mixture was incubated at 37° C for one hour, followed by an addition of 5 ml of ethanol to terminate the reaction. To the reaction mixture was added 1 ml of 4N KOH, and mixture was incubated at 60° C for 30 minutes for saponification. After the reaction, 3 ml of water, 100 μg of dihomo-γ-linolenic acid and 1 ml of 6N HCl were added thereon, and fatty acids in the reaction mixture were extracted twice with 5 ml of hexane. The extract was evaporated in a centrifuge evaporator and 1 ml of ethyl ether/methanol (9:1) was added to the residue, and the fatty acids were methylated with diazomethane. After allowing to stand at a room temperature for 30 minutes, the reaction mixture was evaporated in a centrifuge evaporator to remove the solvent, whereby methyl esters of the resulting fatty acids were obtained. The esters were separated on a 10% AgNO3 silica gel plate using petroleum ether/ethyl ether (1:1) as a developing solvent. Silica gel portions corresponding to the substrate dihomo-γ-linolenic acid and the product arachidonic acid respectively were peeled off, and to 5 ml of toluene-based scintillation fluid solution was added to the silica gel to measure the radioactivity by a scintillation counter. The radioactivity of the generated arachidonic acid was determined by subtracting a radioactivity at the onset of the reaction from a radioactivity after the reaction.
The enzyme inhibitory activities of sesamin, episesamin and sesamomolin were measured according to the above-mentioned procedure, except that the reaction mixture contained 0.001 to 0.5 mg/ml sesamin, episesamin or sesamolin. The radioactivity was measured as described above, and the percent inhibition was calculated.
(In general: Liver microsomes are a subcellular fraction often used to study metabolism.)

In the case of `COc1cc(/C=C/C(=O)CC(=O)/C=C/c2ccc(O)c(OC)c2)ccc1O` [Curcumin], the inhibition at 30 µg/mL in assay [1] (0.03 mg/ml, rat liver microsome) is 36.1%.
For `CCCCOCCOCCOCc1cc2c(cc1CCC)OCO2` [Piperonyl butoxide], the inhibition at 30 µg/mL in assay [2] came to 32.5%; in assay [1], 0%.
Regarding `c1cc2c(cc1[C@H]1OC[C@H]3[C@@H]1CO[C@@H]3c1ccc3c(c1)OCO3)OCO2` [Sesamin], in assay [2], the “specific inhibition of Δ^5 -desaturase” value is given as “specifically inhibits”, the “inhibition of Δ^5 -desaturation reaction from dihomo-γ-linolenic acid to arachidonic acid” value is reported as “inhibited” and the inhibition at 30 µg/mL came out at 39.2%. In addition, the inhibition at 30 µg/mL in assay [1] was determined as 0%.
Regarding `c1cc2c(cc1O[C@H]1OC[C@H]3[C@@H]1CO[C@@H]3c1ccc3c(c1)OCO3)OCO2` [Sesamolin], in assay [2], the “specific inhibition of Δ^5 -desaturase” value is “specifically inhibits” and the “inhibition of Δ^5 -desaturation reaction from dihomo-γ-linolenic acid to arachidonic acid” value is reported as “inhibited”.
